Measured values: patent US20180136227A1, “Treatment and Diagnosis of Hereditary Xerocytosis” (Universite d'aix Marseille, priority 2015, published 2018)

Experiments:
[1] = system: control red blood cells; test: Osmotic fragility test in hypotonic saline, control red blood cells; details: for hemolysis induced before the osmotic test: blood incubation 25 hours, control red blood cells
[2] = system: control red blood cells with WT Gardos channels; test: Vanadate-induced K+ loss and water loss in control red blood cells; format: cell-based, human
Experimental: Red blood cell cation content and volume measurements: Freshly drawn blood was washed 4 times at room temperature in medium containing in mM: NaCl 147, KCl 5, MgSO4 2, CaCl2 1, Hepes 10, buffered with NaOH pH 7.4 (320 mOsm). […] A few minutes before sampling time, 400 μl of cell suspension was taken to fill 3 nylon tubes that were centrifuged for 10 minutes at 4° C., 20,000. g at the exact sampling time. The supernatant was collected for extracellular ion content measurements. The pellet of red cells was extracted and immediately weighted. Then, dry weight was measured after overnight heating (80° C.). Water content was calculated with a correction of 3.64% corresponding to trapped medium between packed cells. Intracellular ions were extracted from dried pellets by overnight incubation at 4° C. in 5 ml milliRho water (Millipore). Na^+ and K^+ were measured by flame spectroscopy with a PFP7 Jenway. Statistics: Mann and Whitney test was used to compare control versus patient or control versus inhibitor in red blood cell experiments.

[3] = Sickle Cell disease, Ataga et al., 2011; cited from earlier work

Row | Structure (SMILES) | hemolysis induced before the osmotic test ([1]; TRAM-34 10 μM) | inhibition at 10 µM ([2]; Homo sapiens, Erythrocyte, 1 h, read-out: inhibition of K+ loss) [%] | effect on K+ loss and cell water loss ([2]; TRAM-34 10 μM, 5 mM vanadate, red blood cells with WT Gardos channels) | hemolysis induced before the osmotic test ([1]; Senicapoc 4 or 0.4 μM) | effect on osmotic resistance ([1]; Senicapoc 4 or 0.4 μM, blood stored 25 hours at 4° C., control) | inhibition at 0.4 µM ([2]; Homo sapiens, Erythrocyte, 1 h) [%] | inhibition at 4 µM ([2]; Homo sapiens, Erythrocyte, 1 h) [%] | toxicity in phase III study [3]
1 | Clc1ccccc1C(c1ccccc1)(c1ccccc1)n1cccn1 [TRAM-34, 1-[(2-Chlorophenyl)diphenylmethyl]-1H-pyrazole] | strong hemolysis | 97 ± 1 | able to reduce | – | – | – | – | –
2 | NC(=O)C(c1ccccc1)(c1ccc(F)cc1)c1ccc(F)cc1 [Senicapoc, bis(4-fluorophenyl)phenyl acetamide] | – | – | – | not observed | no effect | 84 ± 4 | 95 ± 4 | non-toxic
